ChEMBL document CHEMBL4376854, “Investigation of the Adrenergic and Opioid Binding Affinities, Metabolic Stability, Plasma Protein Binding Properties, and Functional Effects of Selected Indole-Based Kratom Alkaloids” (J Med Chem, 2020)
Activity calls are given as the source filed them. The rule behind the calls is not given here.

Assays:
[1] = molecular target: T1, Alpha-2C adrenergic receptor (Homo sapiens) (UniProt P18825); experiment: Competitive antagonist activity at human recombinant adrenergic alpha-2C receptor expressed in CHO cells assessed as inhibition of epinephrine-induced intracellular calcium levels incubated at room temperature by fluorimetry; format: functional, cell-based
T1 sequence (whole entry): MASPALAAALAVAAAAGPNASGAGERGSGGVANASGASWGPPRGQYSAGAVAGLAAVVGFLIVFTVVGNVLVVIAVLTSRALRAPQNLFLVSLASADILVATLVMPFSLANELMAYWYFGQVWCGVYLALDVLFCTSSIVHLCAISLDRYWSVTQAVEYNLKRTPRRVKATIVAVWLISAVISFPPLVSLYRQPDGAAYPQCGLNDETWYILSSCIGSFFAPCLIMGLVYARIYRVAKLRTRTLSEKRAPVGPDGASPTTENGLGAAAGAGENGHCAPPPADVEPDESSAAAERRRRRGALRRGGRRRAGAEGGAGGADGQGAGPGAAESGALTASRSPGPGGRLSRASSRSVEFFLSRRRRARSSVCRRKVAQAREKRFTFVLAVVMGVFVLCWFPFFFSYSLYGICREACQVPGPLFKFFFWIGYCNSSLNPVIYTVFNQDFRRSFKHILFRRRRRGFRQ

[2] = molecular target: T2, Alpha-2B adrenergic receptor (Homo sapiens, UniProt P18089); experiment: biochemical; format: cell-based, CHO
T2 sequence (P18089 whole entry): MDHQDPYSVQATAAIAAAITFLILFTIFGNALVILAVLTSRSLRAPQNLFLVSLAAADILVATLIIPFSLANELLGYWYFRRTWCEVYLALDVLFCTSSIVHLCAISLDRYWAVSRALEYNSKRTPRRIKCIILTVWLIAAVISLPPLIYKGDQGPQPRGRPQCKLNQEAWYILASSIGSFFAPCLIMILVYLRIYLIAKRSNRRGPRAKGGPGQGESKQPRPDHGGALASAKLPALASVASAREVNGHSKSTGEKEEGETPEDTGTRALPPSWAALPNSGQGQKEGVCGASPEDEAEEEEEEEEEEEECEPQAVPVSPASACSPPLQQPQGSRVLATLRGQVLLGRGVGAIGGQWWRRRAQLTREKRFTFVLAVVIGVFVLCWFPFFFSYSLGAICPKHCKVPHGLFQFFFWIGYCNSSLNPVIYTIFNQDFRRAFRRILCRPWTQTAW

[3] = molecular target: T3, Alpha-2B adrenergic receptor (Homo sapiens) (UniProt P18089); settings: CHO, 10000 nM
T3 sequence (whole entry): T2 sequence (P18089 whole entry)

[4] = molecular target: T4, Alpha-1D adrenergic receptor (Homo sapiens) (UniProt P25100); experiment: Partial agonist activity at human recombinant adrenergic alpha-1D receptor expressed in rat RBL cells assessed as stimulation of intracellular calcium levels incubated at room temperature by fluorimetry; format: functional, cell-based
T4 sequence (whole entry): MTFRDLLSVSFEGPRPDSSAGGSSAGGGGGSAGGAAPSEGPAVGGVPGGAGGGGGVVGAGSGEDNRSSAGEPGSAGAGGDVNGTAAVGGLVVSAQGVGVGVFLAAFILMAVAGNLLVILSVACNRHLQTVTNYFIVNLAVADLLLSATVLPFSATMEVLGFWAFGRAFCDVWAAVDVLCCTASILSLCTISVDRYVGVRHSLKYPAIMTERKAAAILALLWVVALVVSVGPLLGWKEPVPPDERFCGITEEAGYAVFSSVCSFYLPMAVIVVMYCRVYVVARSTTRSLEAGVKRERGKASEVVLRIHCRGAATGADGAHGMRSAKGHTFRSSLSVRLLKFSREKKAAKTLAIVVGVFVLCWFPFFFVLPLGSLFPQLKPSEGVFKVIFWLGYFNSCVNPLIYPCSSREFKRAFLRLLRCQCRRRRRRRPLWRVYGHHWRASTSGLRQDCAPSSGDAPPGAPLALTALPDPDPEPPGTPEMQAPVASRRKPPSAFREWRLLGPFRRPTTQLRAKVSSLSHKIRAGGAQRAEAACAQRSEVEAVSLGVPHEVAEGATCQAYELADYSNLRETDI

Mu-type opioid receptor = Mu-type opioid receptor (Homo sapiens, UniProt P35372); settings: HEK293, 100 nM
Mu-type opioid receptor, sequence (P35372 whole entry): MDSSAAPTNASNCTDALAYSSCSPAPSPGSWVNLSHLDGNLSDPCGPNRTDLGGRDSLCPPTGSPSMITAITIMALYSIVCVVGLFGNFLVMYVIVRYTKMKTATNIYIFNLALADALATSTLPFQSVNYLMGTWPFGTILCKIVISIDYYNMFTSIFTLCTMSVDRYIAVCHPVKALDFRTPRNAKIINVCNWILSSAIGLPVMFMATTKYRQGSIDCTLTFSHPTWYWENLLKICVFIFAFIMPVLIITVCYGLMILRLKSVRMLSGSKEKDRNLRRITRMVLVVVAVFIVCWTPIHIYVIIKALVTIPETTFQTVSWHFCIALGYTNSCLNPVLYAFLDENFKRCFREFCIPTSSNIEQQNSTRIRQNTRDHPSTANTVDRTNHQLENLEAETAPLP

[5] = molecular target: T5, Alpha-1D adrenergic receptor (Homo sapiens, UniProt P25100); experiment: Displacement of [3H]prazosin from human recombinant adrenergic alpha-1D receptor expressed in CHO cell membranes incubated for 60 mins
T5 sequence (P25100 whole entry): T4 sequence (whole entry)

Rattus norvegicus [6] = experiment: Antinociceptive activity in Sprague-Dawley rat dosed intravenously using cumulative dosing every 5 mins until rat maxed-out on hot plate co-treated with 0.1 mg/kg naltrexone by hot plate test; format: functional, organism-based
[7] = molecular target: Kappa-type opioid receptor (Homo sapiens, UniProt P41145); experiment: Agonist activity at human recombinant kappa opioid receptor expressed in rat RBL cells assessed as stimulation of intracellular calcium levels incubated at room temperature by fluorimetry; format: functional, cell-based
Kappa-type opioid receptor, sequence (P41145 whole entry): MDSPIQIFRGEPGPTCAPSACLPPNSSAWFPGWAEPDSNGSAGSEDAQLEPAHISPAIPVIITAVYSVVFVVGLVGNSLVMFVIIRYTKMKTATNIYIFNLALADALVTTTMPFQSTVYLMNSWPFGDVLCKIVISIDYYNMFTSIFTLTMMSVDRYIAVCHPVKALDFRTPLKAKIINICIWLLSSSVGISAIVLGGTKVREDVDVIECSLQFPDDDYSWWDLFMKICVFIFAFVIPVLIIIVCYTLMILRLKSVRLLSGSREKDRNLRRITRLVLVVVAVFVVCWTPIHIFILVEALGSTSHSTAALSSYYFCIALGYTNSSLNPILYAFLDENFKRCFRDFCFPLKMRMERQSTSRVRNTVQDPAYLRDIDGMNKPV

Rattus norvegicus [8] = experiment: Antinociceptive activity in Sprague-Dawley rat dosed intravenously using cumulative dosing every 5 mins until rat maxed-out on hot plate by hot plate test; format: functional; settings: iv
[9] = molecular target: T6, Alpha-1B adrenergic receptor (Homo sapiens) (UniProt P35368); settings: CHO, 100 nM
T6 sequence (whole entry): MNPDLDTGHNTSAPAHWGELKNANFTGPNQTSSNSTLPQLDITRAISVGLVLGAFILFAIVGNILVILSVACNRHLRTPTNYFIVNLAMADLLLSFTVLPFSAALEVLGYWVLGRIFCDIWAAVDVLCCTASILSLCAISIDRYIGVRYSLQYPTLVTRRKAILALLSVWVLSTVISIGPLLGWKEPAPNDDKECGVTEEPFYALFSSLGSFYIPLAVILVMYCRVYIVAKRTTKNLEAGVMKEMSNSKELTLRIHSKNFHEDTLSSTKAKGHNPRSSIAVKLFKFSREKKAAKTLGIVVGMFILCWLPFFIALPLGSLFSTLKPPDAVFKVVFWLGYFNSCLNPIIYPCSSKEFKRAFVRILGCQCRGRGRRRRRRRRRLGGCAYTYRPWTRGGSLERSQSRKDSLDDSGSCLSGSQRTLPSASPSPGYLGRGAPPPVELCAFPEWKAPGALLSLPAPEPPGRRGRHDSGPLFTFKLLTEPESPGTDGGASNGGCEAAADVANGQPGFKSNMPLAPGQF

[10] = molecular target: T3, Alpha-2B adrenergic receptor (Homo sapiens); settings: CHO, 100 nM

SMILES	inhibition [1]	Ki [2]	inhibition [3]	Activity [4]	inhibition (Mu-type opioid receptor)	Ki [5]	Activity (Rattus norvegicus [6])	Activity [7]	ED50 (Rattus norvegicus [8])	inhibition [9]	inhibition [10]
CC[C@@H]1CN2CCc3c([nH]c4cccc(OC)c34)[C@@H]2C[C@@H]1/C(=C\OC)C(=O)OC	Active	9.29 µM	25.1%	Active	29%	5.48 µM	inactive	–	–	–	–
CC[C@@H]1CN2CCc3c([nH]c4cccc(OC)c34)[C@H]2C[C@@H]1/C(=C\OC)C(=O)OC	–	–	67.2%	–	–	–	inactive	inactive	6.25 mg/kg	25.2%	0%
